Ki and EC50 data for 16 compounds are collected here from US9073855B2, “BCL-2 selective apoptosis-inducing agents for the treatment of cancer and immune diseases” (AbbVie Inc., priority 2008, dated 2015).

Assay [1] deals with GST-Bcl-2 (Homo sapiens, UniProt P10415). Put plainly: TR-FRET binding assay, GST-Bcl-2 with F-Bak peptide probe. The conditions noted are these: TR-FRET Binding Affinity, GST-Bcl-2, F-Bak peptide probe. The procedure, abridged: (§1)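 Competitive TR-FRET: GST-fusion protein, fluorescent Bak peptide probe and Tb-labelled anti-GST antibody incubated with compound dilution series (starting 50 μM as 2× stock, 10% DMSO) for 3 h at RT. Excitation 340/35 nm; Ki derived via Wang's exact competitive-binding equation.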
GST-Bcl-2, sequence (P10415 whole entry, the tested form may be a part): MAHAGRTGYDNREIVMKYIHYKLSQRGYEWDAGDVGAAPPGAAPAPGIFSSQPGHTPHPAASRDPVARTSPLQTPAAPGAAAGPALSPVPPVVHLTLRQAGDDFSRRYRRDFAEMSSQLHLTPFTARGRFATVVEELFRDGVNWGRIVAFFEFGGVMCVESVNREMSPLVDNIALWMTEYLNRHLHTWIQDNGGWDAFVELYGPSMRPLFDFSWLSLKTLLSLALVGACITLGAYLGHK
Background: Time-resolved FRET reads energy transfer from a long-lived donor to a nearby acceptor.

Assay [2] has as its target GST-Bcl-XL (Homo sapiens, UniProt Q07817). Put plainly: TR-FRET binding assay, GST-Bcl-XL with F-Bak peptide probe. Conditions: TR-FRET Binding Affinity, GST-Bcl-XL, F-Bak peptide probe. The procedure, abridged:
as §1

The test system of assay [3] is FL5.12/Bcl-2 cells. The experiment in a line: FL5.12/Bcl-2 cell viability assay under IL-3 withdrawal (CellTitre Glo). The assay is classed as cell-based, murine. The conditions noted are these: Mus musculus, IL-3 withdrawn 48 hrs, then 24 hrs with compound. An outline of the steps: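 Viability measured by CellTitre Glo after FL5.12/Bcl-2 murine cells, starved of IL-3 for 48 hrs, were treated with compounds for another 24 hrs. Killing reflects inhibition of Bcl-2 sequestration of Bim and Puma.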

GST-Bcl-XL, sequence (Q07817 whole entry): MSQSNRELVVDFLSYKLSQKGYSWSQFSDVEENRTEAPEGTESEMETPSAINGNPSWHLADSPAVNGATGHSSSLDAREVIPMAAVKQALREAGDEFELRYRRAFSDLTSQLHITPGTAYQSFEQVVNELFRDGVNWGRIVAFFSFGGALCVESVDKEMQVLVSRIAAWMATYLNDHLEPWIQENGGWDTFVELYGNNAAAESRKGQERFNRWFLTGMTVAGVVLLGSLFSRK

For orientation: Ki means a measure of affinity in units of concentration, obtained from inhibition or displacement. Usually EC50 stands for the midpoint of the concentration-response curve. On to `CC1(C)CCC(CN2CCN(c3ccc(C(=O)NS(=O)(=O)c4ccc(OC[C@@H]5COCCO5)c([N+](=O)[O-])c4)c(Oc4ccc5[nH]ccc5c4)c3)CC2)=C(c2ccc(Cl)cc2)C1` [Example 347, 4-(4-{[2-(4-chlorophenyl)-4,4-dimethylcyclohex-1-en-1-yl]methyl}piperazin-1-yl)-N-({4-[(2S)-1,4-dioxan-2-ylmethoxy]-3-nitrophenyl}sulfonyl)-2-(1H-indol-5-yloxy)benzamide], for which the Ki in assay [1] was determined as 0.243 nM; in assay [2], 306 nM. Besides, the 50% effective concentration (EC50) in assay [3] worked out at 46.8 nM.
Regarding `CC1(C)CCC(CN2CCN(c3ccc(C(=O)NS(=O)(=O)c4ccc(NCCCN5CCOCC5)c(S(=O)(=O)C(F)(F)F)c4)c(Oc4ccc5[nH]ccc5c4)c3)CC2)=C(c2ccc(Cl)cc2)C1` [Example 348, 4-(4-{[2-(4-chlorophenyl)-4,4-dimethylcyclohex-1-en-1-yl]methyl}piperazin-1-yl)-2-(1H-indol-5-yloxy)-N-({4-[(3-morpholin-4-ylpropyl)amino]-3-[(trifluoromethyl)sulfonyl]phenyl}sulfonyl)benzamide], the inhibitory constant (Ki) in assay [1] worked out at 0.302 nM; in assay [2], 29.3 nM. Besides, the EC50 in assay [3] worked out at 87.2 nM.
The like results for `CC1(C)CCC(CN2CCN(c3ccc(C(=O)NS(=O)(=O)c4ccc(NCCCN5CCOCC5)c(S(=O)(=O)C(F)(F)F)c4)c(Oc4cccc5[nH]ccc45)c3)CC2)=C(c2ccc(Cl)cc2)C1` [Example 349, 4-(4-{[2-(4-chlorophenyl)-4,4-dimethylcyclohex-1-en-1-yl]methyl}piperazin-1-yl)-2-(1H-indol-4-yloxy)-N-({4-[(3-morpholin-4-ylpropyl)amino]-3-[(trifluoromethyl)sulfonyl]phenyl}sulfonyl)benzamide] were, in that order, 0.467 nM, 24.2 nM and 146 nM.
For the compound `CC1(C)CCC(CN2CCN(c3ccc(C(=O)NS(=O)(=O)c4cnc(NCC5CCOCC5)c(Br)c4)c(Oc4ccc5[nH]ccc5c4)c3)CC2)=C(c2ccc(Cl)cc2)C1` [Example 350, N-({5-bromo-6-[(tetrahydro-2H-pyran-4-ylmethyl)amino]pyridin-3-yl}sulfonyl)-4-(4-{[2-(4-chlorophenyl)-4,4-dimethylcyclohex-1-en-1-yl]methyl}piperazin-1-yl)-2-(1H-indol-5-yloxy)benzamide], the inhibition constant Ki in assay [1] was 5.97 nM; in assay [2], over 660 nM. For the same compound, the concentration for a half-maximal effect (EC50) in assay [3] was 311 nM.
Regarding `CC1(C)CCC(CN2CCN(c3ccc(C(=O)NS(=O)(=O)c4ccc(NCCN5CCOCC5)c(S(=O)(=O)C(F)(F)F)c4)c(Oc4ccc5[nH]ccc5c4)c3)CC2)=C(c2ccc(Cl)cc2)C1` [Example 351, 4-(4-{[2-(4-chlorophenyl)-4,4-dimethylcyclohex-1-en-1-yl]methyl}piperazin-1-yl)-2-(1H-indol-5-yloxy)-N-({4-[(2-morpholin-4-ylethyl)amino]-3-[(trifluoromethyl)sulfonyl]phenyl}sulfonyl)benzamide], the results for the inhibition constant (Ki) in assay [1] and in assay [2] were 1.58 nM and over 660 nM, respectively. The EC50 in assay [3] is 345 nM.
The matching figures for `CC1(C)CCC(CN2CCN(c3ccc(C(=O)NS(=O)(=O)c4cnc(NCC5CCOCC5)c(C#N)c4)c(Oc4ccc5[nH]ccc5c4)c3)CC2)=C(c2ccc(Cl)cc2)C1` [Example 352, 4-(4-{[2-(4-chlorophenyl)-4,4-dimethylcyclohex-1-en-1-yl]methyl}piperazin-1-yl)-N-({5-cyano-6-[(tetrahydro-2H-pyran-4-ylmethyl)amino]pyridin-3-yl}sulfonyl)-2-(1H-indol-5-yloxy)benzamide]: 6.82 nM, over 660 nM and 156 nM.
As for `CN1CCC(Oc2ccc(S(=O)(=O)NC(=O)c3ccc(N4CCN(CC5=C(c6ccc(Cl)cc6)CC(C)(C)CC5)CC4)cc3Oc3ccc4[nH]ccc4c3)cc2[N+](=O)[O-])CC1` [Example 353, 4-(4-{[2-(4-chlorophenyl)-4,4-dimethylcyclohex-1-en-1-yl]methyl}piperazin-1-yl)-2-(1H-indol-5-yloxy)-N-({4-[(1-methylpiperidin-4-yl)oxy]-3-nitrophenyl}sulfonyl)benzamide], the results for the Ki in assay [1] and in assay [2] were 0.292 nM and over 660 nM, respectively. Moreover, the concentration giving a half-maximal response (EC50) in assay [3] is 58.3 nM.
The like results for `CN1CCC(COc2ccc(S(=O)(=O)NC(=O)c3ccc(N4CCN(CC5=C(c6ccc(Cl)cc6)CC(C)(C)CC5)CC4)cc3Oc3ccc4[nH]ccc4c3)cc2[N+](=O)[O-])CC1` [Example 354, 4-(4-{[2-(4-chlorophenyl)-4,4-dimethylcyclohex-1-en-1-yl]methyl}piperazin-1-yl)-2-(1H-indol-5-yloxy)-N-({4-[(1-methylpiperidin-4-yl)methoxy]-3-nitrophenyl}sulfonyl)benzamide] were, in that order, 0.036 nM, 5.41 nM and 5.6 nM.
The like results for `O=C(NS(=O)(=O)c1ccc(NCC2CCOCC2)c([N+](=O)[O-])c1)c1ccc(N2CCN(CC3=C(c4ccc(Cl)cc4)CCN(CCCO)C3)CC2)cc1Oc1cccc2[nH]ccc12` [Example 355, 4-(4-{[4-(4-chlorophenyl)-1-(3-hydroxypropyl)-1,2,5,6-tetrahydropyridin-3-yl]methyl}piperazin-1-yl)-2-(1H-indol-4-yloxy)-N-({3-nitro-4-[(tetrahydro-2H-pyran-4-ylmethyl)amino]phenyl}sulfonyl)benzamide] were, in that order, 0.12 nM, over 660 nM and over 500 nM.
The like results for `CC1(C)CCC(CN2CCN(c3ccc(C(=O)NS(=O)(=O)c4ccc(NCC5CCN(C(=O)OCc6ccccc6)CC5)c([N+](=O)[O-])c4)c(Oc4ccc5[nH]ccc5c4)c3)CC2)=C(c2ccc(Cl)cc2)C1` [Example 356, benzyl 4-({[4-({[4-(4-{[2-(4-chlorophenyl)-4,4-dimethylcyclohex-1-en-1-yl]methyl}piperazin-1-yl)-2-(1H-indol-5-yloxy)benzoyl]amino}sulfonyl)-2-nitrophenyl]amino}methyl)piperidine-1-carboxylate] were, in that order, 5.02 nM, over 660 nM and over 500 nM.
With `CC1(C)CCC(CN2CCN(c3ccc(C(=O)NS(=O)(=O)c4ccc(OCC5CCOCC5)c(C(N)=O)c4)c(Oc4ccc5[nH]ccc5c4)c3)CC2)=C(c2ccc(Cl)cc2)C1` [Example 357, N-{[3-(aminocarbonyl)-4-(tetrahydro-2H-pyran-4-ylmethoxy)phenyl]sulfonyl}-4-(4-{[2-(4-chlorophenyl)-4,4-dimethylcyclohex-1-en-1-yl]methyl}piperazin-1-yl)-2-(1H-indol-5-yloxy)benzamide], the Ki in assay [1] is 1.34 nM; in assay [2] it was over 660 nM. Further, the half-maximal effective concentration (EC50) in assay [3] is over 500 nM.
On to `O=C(NS(=O)(=O)c1ccc(NC2CCN(C3CCOCC3)CC2)c([N+](=O)[O-])c1)c1ccc(N2CCN(Cc3ccc(C(F)(F)F)cc3-c3ccc(Cl)cc3)CC2)cc1Oc1ccc2[nH]ccc2c1` [Example 358, 4-(4-{[4′-chloro-5-(trifluoromethyl)-1,1′-biphenyl-2-yl]methyl}piperazin-1-yl)-2-(1H-indol-5-yloxy)-N-({3-nitro-4-[(1-tetrahydro-2H-pyran-4-ylpiperidin-4-yl)amino]phenyl}sulfonyl)benzamide], for which the inhibitory constant (Ki) in assay [1] is 5.42 nM; in assay [2], over 660 nM. Further, the EC50 in assay [3] was over 500 nM.
The matching figures for `CC(C)(C)c1ccc(CN2CCN(c3ccc(C(=O)NS(=O)(=O)c4ccc(NC5CCN(C6CCOCC6)CC5)c([N+](=O)[O-])c4)c(Oc4ccc5[nH]ccc5c4)c3)CC2)c(-c2ccc(Cl)cc2)c1` [Example 359, 4-{4-[(5-tert-butyl-4′-chloro-1,1′-biphenyl-2-yl)methyl]piperazin-1-yl}-2-(1H-indol-5-yloxy)-N-({3-nitro-4-[(1-tetrahydro-2H-pyran-4-ylpiperidin-4-yl)amino]phenyl}sulfonyl)benzamide]: 13.5 nM, over 660 nM and over 500 nM.
For the compound `Cn1cncc1CNc1ccc(S(=O)(=O)NC(=O)c2ccc(N3CCN(CC4=C(c5ccc(Cl)cc5)CC(C)(C)CC4)CC3)cc2Oc2ccc3[nH]ccc3c2)cc1[N+](=O)[O-]` [Example 360, 4-(4-{[2-(4-chlorophenyl)-4,4-dimethylcyclohex-1-en-1-yl]methyl}piperazin-1-yl)-2-(1H-indol-5-yloxy)-N-[(4-{[(1-methyl-1H-imidazol-5-yl)methyl]amino}-3-nitrophenyl)sulfonyl]benzamide], the Ki in assay [1] worked out at 0.228 nM; in assay [2], 144 nM. Besides, the EC50 in assay [3] is 106 nM.
For `CC1(C)CCC(CN2CCN(c3ccc(C(=O)NS(=O)(=O)c4ccc(S(=O)(=O)N5CCOCC5)cc4)c(Oc4ccc5[nH]ccc5c4)c3)CC2)=C(c2ccc(Cl)cc2)C1` [Example 361, 4-(4-{[2-(4-chlorophenyl)-4,4-dimethylcyclohex-1-en-1-yl]methyl}piperazin-1-yl)-2-(1H-indol-5-yloxy)-N-{[4-(morpholin-4-ylsulfonyl)phenyl]sulfonyl}benzamide], the values for the Ki in assay [1] and in assay [2] were 7.13 nM and over 660 nM, respectively. Besides, in assay [3], the EC50 was over 500 nM.
Turning to `CC1(C)CCC(CN2CCN(c3ccc(C(=O)NS(=O)(=O)c4ccc(NN5CCS(=O)(=O)CC5)c([N+](=O)[O-])c4)c(Oc4ccc5[nH]ccc5c4)c3)CC2)=C(c2ccc(Cl)cc2)C1` [Example 362, 4-(4-{[2-(4-chlorophenyl)-4,4-dimethylcyclohex-1-en-1-yl]methyl}piperazin-1-yl)-N-({4-[(1,1-dioxidothiomorpholin-4-yl)amino]-3-nitrophenyl}sulfonyl)-2-(1H-indol-5-yloxy)benzamide], the figures for the Ki in assay [1] and in assay [2] were 0.082 nM and 290 nM, respectively. Also, in assay [3], the EC50 turned out to be 171 nM.
